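Results reflect a 48-hour exposure of cells in 96-well plates to compound at five concentrations. Abbreviation: GI50, concentration required for 50% inhibition of growth. TGI: concentration producing complete growth inhibition.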
Key:
Test in all cases: growth of human tumour cells (NCI), 48 h
HCT-116 colon = system: HCT-116 colon
EKVX NSCLC = system: EKVX NSCLC
MALME-3M melanoma = system: MALME-3M melanoma
DU-145 prostate = system: DU-145 prostate
RXF 393 renal = system: RXF 393 renal
PC-3 prostate = system: PC-3 prostate
SN12C renal = system: SN12C renal
HOP-92 NSCLC = system: HOP-92 NSCLC
SNB-75 CNS = system: SNB-75 CNS
CCRF-CEM leukemia = system: CCRF-CEM leukemia
BT-549 breast = system: BT-549 breast
NCI-H23 lung = system: NCI-H23 lung
CAKI-1 renal = system: CAKI-1 renal
T-47D breast = system: T-47D breast
ACHN renal = system: ACHN renal
HOP-62 NSCLC = system: HOP-62 NSCLC
HCT-15 colon = system: HCT-15 colon
UO-31 renal = system: UO-31 renal
U251 CNS = system: U251 CNS
RPMI-8226 leukemia = system: RPMI-8226 leukemia
SK-MEL-2 melanoma = system: SK-MEL-2 melanoma
COLO 205 colon = system: COLO 205 colon
786-0 renal = system: 786-0 renal
IGROV1 ovarian = system: IGROV1 ovarian
MOLT-4 leukemia = system: MOLT-4 leukemia
SK-MEL-5 melanoma = system: SK-MEL-5 melanoma
A549 NSCLC = system: A549 NSCLC
SK-OV-3 ovarian = system: SK-OV-3 ovarian
TK-10 renal = system: TK-10 renal

In the case of `CCN(CCCNC(=O)Cc1cc(=O)oc2cc(N(C)C)ccc12)CCNc1ccnc2cc(Cl)ccc12`, the TGI (HCT-116 colon) was 17 µM, the GI50 (EKVX NSCLC) was 22.2 µM and the TGI (EKVX NSCLC) was 70 µM. The GI50 (MALME-3M melanoma) was 1.83 µM, the TGI (MALME-3M melanoma) was 3.86 µM and the GI50 (DU-145 prostate) was 18.4 µM. It also gave a TGI (DU-145 prostate) of 47.7 µM, a GI50 (RXF 393 renal) of 1.72 µM and a TGI (RXF 393 renal) of 5.15 µM. The GI50 (PC-3 prostate) was 13.8 µM, the TGI (PC-3 prostate) was 37.9 µM and the GI50 (SN12C renal) was 13.9 µM. It also gave a TGI (SN12C renal) of 36 µM, a GI50 (HOP-92 NSCLC) of 1.48 µM and a TGI (HOP-92 NSCLC) of 13.8 µM. It also gave a GI50 (SNB-75 CNS) of 6.44 µM, a TGI (SNB-75 CNS) of 25.6 µM and a GI50 (CCRF-CEM leukemia) of 4.38 µM. For the same compound, the TGI (CCRF-CEM leukemia) was 34 µM, the GI50 (BT-549 breast) was 14.4 µM and the TGI (BT-549 breast) was 34.6 µM. For the same compound, the GI50 (NCI-H23 lung) was 14 µM, the TGI (NCI-H23 lung) was 34.3 µM and the GI50 (CAKI-1 renal) was 15.6 µM. The TGI (CAKI-1 renal) was 39.5 µM, the GI50 (T-47D breast) was 12.5 µM and the TGI (T-47D breast) was 39.8 µM. The GI50 (ACHN renal) was 9.21 µM, the TGI (ACHN renal) was 24.3 µM and the GI50 (HOP-62 NSCLC) was 13.2 µM. The TGI (HOP-62 NSCLC) was 32.5 µM, the GI50 (HCT-15 colon) was 10.4 µM and the TGI (HCT-15 colon) was 29.5 µM. It also gave a GI50 (UO-31 renal) of 15.5 µM, a TGI (UO-31 renal) of 40.6 µM and a GI50 (U251 CNS) of 3.4 µM. For the same compound, the TGI (U251 CNS) was 12.6 µM, the GI50 (RPMI-8226 leukemia) was 12.4 µM and the TGI (RPMI-8226 leukemia) was 38.8 µM. It also gave a GI50 (SK-MEL-2 melanoma) of 12.6 µM, a TGI (SK-MEL-2 melanoma) of 26.2 µM and a GI50 (COLO 205 colon) of 6.54 µM. The TGI (COLO 205 colon) was 20.8 µM, the GI50 (786-0 renal) was 16 µM and the TGI (786-0 renal) was 36.8 µM. The GI50 (IGROV1 ovarian) was 13.1 µM, the TGI (IGROV1 ovarian) was 35.1 µM and the GI50 (MOLT-4 leukemia) was 8.13 µM. It also gave a TGI (MOLT-4 leukemia) of 28 µM, a GI50 (SK-MEL-5 melanoma) of 1.55 µM and a TGI (SK-MEL-5 melanoma) of 2.93 µM. The GI50 (A549 NSCLC) was 11.3 µM, the TGI (A549 NSCLC) was 28.6 µM and the GI50 (SK-OV-3 ovarian) was 23.9 µM. For the same compound, the TGI (SK-OV-3 ovarian) was 56.5 µM, the GI50 (TK-10 renal) was 6.46 µM and the TGI (TK-10 renal) was 20.3 µM.
